We go through two compounds from patent US20210052563A1, “PROTON PUMP INHIBITORS AND METHODS OF USE IN CHEMORADIATION-INDUCED TISSUE INFLAMMATION AND SCARRING” (Baylor College of Medicine, priority 2018, published 2021).

Assay [1] has as its system bleomycin-induced lung injury. The note with it: systemic administration; cited from earlier work.
Assay [2] deals with chemotherapy-resistant human cancer cell lines. The conditions noted are these: PPI pretreatment vs no pretreatment; melanoma, colon, breast and ovarian cancer cell lines; cited from earlier work.
Assay [3] concerns radiation-induced dermatitis. Put plainly: Mouse model of radiation-induced dermatitis: histopathology (H&E, Masson's Trichrome, CD11b, F4/80). Format: in vivo, C57BL/6J mice. The method, then:
In vivo study: mouse model of radiation-induced dermatitis: a 30-day study was conducted using C57BL/6J mice (Jackson Laboratories, Bar Harbor, Me.) to assess the efficacy of dermaprazole in mitigating radiation-induced dermatitis. The experiment consisted of 1 group receiving no radiation (Group 1) and 5 groups receiving radiation (Groups 2 to 6) (Table 2) from an X-ray source. First, all the animals were prepared for experiment by removing hair from the flank area using an electric shaver and hair removal cream. The lack of skin irritation from the shaving procedure was visually confirmed prior to randomization. Twenty-four hours later, radiation was delivered to pre-defined area (2×2 cm) on the flank of the animals in Groups 2 to 6. To induce dermatitis, the animals were anesthetized using 4% isoflurane in oxygen until a deep plane of anesthesia was achieved. Subsequently, the animals were placed under lead shielding (Braintree Scientific, Braintree, Mass.) to protect the remaining part of the body and expose the flank to a total radiation dose of 30 Gy fractionated as 2×15 Gy on study days 0 and 7 using the same settings described above. Dermaprazole was evaluated in a prophylactic (treatment schedule from day 1 to day 30) and therapeutic (treatment schedule from day 10 to day 30) course. For the prophylactic course, low dose (1%, Group 2) and high dose (2%, Group 3) of dermaprazole were evaluated. For the therapeutic course (Group 4), only the high dose was evaluated. Similarly, the sham (Group 1) and vehicle (Group 5) groups were treated with placebo cream containing no active drug starting from day 0 of the study. As a positive treatment control, 1% hydrocortisone (Group 6) was applied starting from day 0. […] The photographs were blindly evaluated and scored by a certified dermatologist using Common Terminology Criteria for Adverse Events (CTCAE; version 4.0)(79): 0=normal skin appearance; 1=mild erythema; 2=moderate-to-severe erythema; 3=desquamation of 25-50% of irradiated area; 4=desquamation of >50% irradiated area; and 5=frank ulcer. […]

Assay [4] concerns radiation-induced dermatitis. Put plainly: Mouse model of radiation-induced dermatitis: skin appearance and dermatitis scoring. Format: in vivo, C57BL/6J mice. As for the experimental part: In vivo study: mouse model of radiation-induced dermatitis: a 30-day study was conducted using C57BL/6J mice (Jackson Laboratories, Bar Harbor, Me.) to assess the efficacy of dermaprazole in mitigating radiation-induced dermatitis. The experiment consisted of 1 group receiving no radiation (Group 1) and 5 groups receiving radiation (Groups 2 to 6) (Table 2) from an X-ray source. First, all the animals were prepared for experiment by removing hair from the flank area using an electric shaver and hair removal cream. The lack of skin irritation from the shaving procedure was visually confirmed prior to randomization. […] Dermaprazole was evaluated in a prophylactic (treatment schedule from day 1 to day 30) and therapeutic (treatment schedule from day 10 to day 30) course. For the prophylactic course, low dose (1%, Group 2) and high dose (2%, Group 3) of dermaprazole were evaluated. For the therapeutic course (Group 4), only the high dose was evaluated. […] The photographs were blindly evaluated and scored by a certified dermatologist using Common Terminology Criteria for Adverse Events (CTCAE; version 4.0)(79): 0=normal skin appearance; 1=mild erythema; 2=moderate-to-severe erythema; 3=desquamation of 25-50% of irradiated area; 4=desquamation of >50% irradiated area; and 5=frank ulcer. […]

Each structure is given as a SMILES string.

For `COc1ccc2nc([S@@+]([O-])Cc3ncc(C)c(OC)c3C)[nH]c2c1` [esomeprazole], the “lung inflammation and fibrosis” value in assay [1] is “suppresses lung inflammation and fibrosis”. For the same compound, the “change of IC50 values of cisplatin, vinblastine and 5-fluorouracil” value in assay [2] was “order of magnitude reduction”.
Regarding `C[C@]12CCC(=O)C=C1CC[C@@H]1[C@@H]2[C@@H](O)C[C@@]2(C)[C@H]1CC[C@]2(O)C(=O)CO` [1% hydrocortisone, hydrocortisone], the “ulceration (H&E stain)” value in assay [3] (day 30) is on record as “ulceration is seen by day 30”. In addition, the “collagen accumulation (Masson's Trichrome stain)” value in assay [3] (days 16 and 30) is listed as “Increased collagen deposition”. Besides, the “CD11b and F4/80 positive inflammatory cells at the injury site” value in assay [3] (immunohistochemical staining of irradiated skin) is on record as “Increased number of inflammatory cells”. Besides, the skin necrosis entry in assay [4] (16 days and 30 days post-irradiation) is “severe skin necrosis”. Also, in assay [4] (once daily topical, 30-day model), the “animals with no effect on healing of the wounds” value amounted to 90%.
